In one assay the test system is OCI-LY10 human B-cell lymphoma cells. The experiment in a line: OCI-LY10 cell proliferation inhibition (CellTiter-Glo). The format is cell-based. The conditions noted are these: OCI-Ly10, 72 h, treated for 3 days. On the procedure: OCI-LY10 human B-cell lymphoma cells were cultured in a 37° C., 5% CO2 incubator. The composition of medium was IMDM (GIBCO, Cat #12440053); the supplementary compositions were 20% FBS (Hyclone, Cat #SH30084.03); 1% PenStrep (Thermo, Cat #SV30010).
(§1) The tumor cell lines OCI-LY10 and TMD8 were used to detect the effect of the compound on inhibiting tumor cell proliferation in vitro. The tumor cell line was cultured in a 37° C., 5% CO2 incubator according to the culture conditions shown, and passaged regularly, then the cells in the logarithmic growth phase were taken, counted, and spread in a 96-well plate (the cells in each well were adjusted to an appropriate concentration, a total of […] per well was added). After incubating overnight in a 37° C., 5% CO2 incubator, drugs with different concentration gradients (10 μL of drug solution was added) were added and treated for 3 days, then 50 μL of CellTiter-Glo working solution was added to each well, and the cell plate was wrapped with aluminum foil to avoid light. The culture plate was shaken on an orbital shaker for 2 minutes to induce cell lysis, and placed at room temperature for 10 minutes to stabilize the luminescence signal, then the luminescence signal was detected on the 2104 EnVision plate reader.
(§2) The Inhibition rate (IR) of the tested compound was calculated using the following formula: IR (%)=(1−(RLU compound−RLU blank control)/(RLU solvent control−RLU blank control))*100%.
(§3) The inhibition rates of different concentrations of the compounds were calculated in Excel, and then the inhibition curves were made by GraphPad Prism software and the related parameters were calculated, including the minimum inhibition rate, the maximum inhibition rate and IC50.
T1 sequence (Q06187 whole entry): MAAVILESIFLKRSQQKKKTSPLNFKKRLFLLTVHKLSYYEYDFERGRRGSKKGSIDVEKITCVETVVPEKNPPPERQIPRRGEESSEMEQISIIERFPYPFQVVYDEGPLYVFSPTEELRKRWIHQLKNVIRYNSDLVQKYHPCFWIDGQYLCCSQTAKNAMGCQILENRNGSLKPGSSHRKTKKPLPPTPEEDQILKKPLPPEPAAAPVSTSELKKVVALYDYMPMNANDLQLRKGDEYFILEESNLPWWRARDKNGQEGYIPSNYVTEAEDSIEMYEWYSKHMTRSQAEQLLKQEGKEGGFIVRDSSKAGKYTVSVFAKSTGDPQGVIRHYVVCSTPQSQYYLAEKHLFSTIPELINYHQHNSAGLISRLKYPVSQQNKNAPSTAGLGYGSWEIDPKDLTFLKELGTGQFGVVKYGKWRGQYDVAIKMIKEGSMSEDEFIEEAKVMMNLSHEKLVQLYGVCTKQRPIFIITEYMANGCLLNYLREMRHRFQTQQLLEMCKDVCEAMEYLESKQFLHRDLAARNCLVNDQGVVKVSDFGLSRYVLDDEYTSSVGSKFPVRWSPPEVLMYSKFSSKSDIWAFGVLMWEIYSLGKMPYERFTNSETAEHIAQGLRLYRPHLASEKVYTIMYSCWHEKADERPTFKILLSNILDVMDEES
Regarding `Cc1cc(-c2nc(C(=O)Nc3cn4cc(CCC(C)(C)O)nc4cc3-c3cccc(F)c3)co2)ccn1` [WX025], the half-inhibitory concentration (IC50) is 94 nM.

`Cc1cc(-c2nc(C(=O)Nc3cn4cc(CCC(C)(C)O)nc4cc3-c3ccccc3)co2)ccn1` [WX021] gave a 50% inhibitory concentration (IC50) of 171 nM.

`Cc1cc(-c2nc(C(=O)Nc3cn4cc(CCC(=O)O)nc4cc3N3CCC(C)(C)CC3)co2)ccn1` [WX016] registered an IC50 of 466 nM.

In a further assay the test system is human B-cell lymphoma OCI-LY10 cell subcutaneous xenograft tumor. The experiment in a line: Human B-cell lymphoma OCI-LY10 cell subcutaneous xenograft tumor mouse model. It is filed as in vivo. The following applies: 10 mpk, 18 days after the start of administration, p<0.001. Here is the method: The objective of the experiment was to study the efficacy of WX001 as the test drug on human B-cell lymphoma OCI-LY10 cell subcutaneous xenograft tumor in CB17 SCID mouse model.
OCI-LY10 human B-cell lymphoma cells were cultured in a 37° C., 5% CO2 incubator.
OCI-LY10 tumor cells were cultured and passaged, and 0.2 mL (1×10^7 cells) OCI-LY10 cells were subcutaneously inoculated on the right back of each […] (with Matrigel, volume ratio 1:1), and the group administration was started when the average tumor volume reached 167 mm^3. The health status and death of animals were monitored every day, and routine examinations included observing the effects of tumor growth and drug treatment on daily behaviors of animals, such as behavioral activities, food intake and water intake, weight change (weight was measured twice a week), tumor size (tumor volume was measured twice a week), appearance signs or other abnormal conditions.
The experimental index was to investigate whether the tumor growth was inhibited, delayed or cured. Including the measurement of tumor volume (TV), and the calculation of the compound's anti-tumor efficacy using TGI (%) or the relative tumor proliferation rate T/C (%).
TV=0.5a×b^2, a and b represented the long diameter and short diameter of the tumor, respectively.
T/C %=TRTV/CRTV×100% (TRTV: RTV in treatment group; CRTV: RTV in negative control group). Relative tumor volume (RTV) was calculated according to the results of tumor measurement, and the calculation formula was RTV=Vt/V0, wherein V0 was the average tumor volume measured at the time of group administration (i.e., d0), Vt was the average tumor volume at a certain measurement, and TRTV and CRTV were the data taken at the same day.
In turn, `C=CC(=O)N1CCC[C@@H](n2nc(-c3ccc(Oc4ccccc4)cc3)c3c(N)ncnc32)C1` [Ibrutinib, reference compound] gave a T/C value of 39% and a TGI value of 85%.

Another assay has as its target T1, human BTK (Homo sapiens, UniProt Q06187).
T1 construct: purchased Reaction Biology Corp
The experiment in a line: In vitro BTK kinase activity, 33P isotope-labeled kinase activity assay (Reaction Biology Corp). It is filed as biochemical. The conditions noted are these: 33P-ATP, 2 hours at room temperature. On the procedure: The IC50 values were determined using ^33P isotope-labeled kinase activity assay (Reaction Biology Corp) to evaluate the inhibitory ability of the tested compounds on human BTK.
(§4) Buffer conditions: 20 mM Hepes (pH 7.5), 10 mM MgCl2, 1 mM EGTA, 0.02% Brij35, 0.02 mg/mL BSA, 0.1 mM Na3VO4, 2 mM DTT, 1% DMSO.
Test procedure: At room temperature, the tested compound was dissolved in DMSO to prepare a 10 mM solution for later use. The substrate was dissolved in a newly prepared buffer solution, and the tested BTK kinase was added thereto and mixed evenly. The compound dissolved in DMSO was added to the kinase reaction mixture through Echo 550 (Acoustic technology; Nanoliter range). After incubation for 20 minutes at room temperature, ^33P-ATP was added to initiate the reaction. The reaction was carried out at room temperature for 2 hours, and the radioactivity of the reaction liquid point was detected by filtration-binding method with P81 ion exchange filter paper. The kinase activity data were expressed by comparing the kinase activity of the group containing the tested compound with the kinase activity of the blank group (only containing DMSO), and the IC50 value was obtained by curve fitting by Prism4 software (GraphPad), the experimental results are shown in Table 10.
For the compound `Cc1cc(-c2nc(C(=O)Nc3cn4cc(CCC(C)(C)O)nc4cc3-c3cccc(F)c3)co2)ccn1` [WX025], it took 21.8 nM to reach half-maximal inhibition (IC50).

For `Cc1cc(-c2nc(C(=O)Nc3cn4cc(CCC(C)(C)O)nc4cc3-c3ccccc3)co2)ccn1` [WX021], the 50% inhibitory concentration (IC50) came out at 13.9 nM. This IC50 lies about 1.6-fold lower than the previous one.

Turning to `Cc1cc(-c2nc(C(=O)Nc3cn4cc(CCC(=O)O)nc4cc3N3CCC(C)(C)CC3)co2)ccn1` [WX016], the half-maximal inhibitory concentration (IC50) worked out at 8.9 nM.

A further assay concerns TNF-α production in THP-1 cells. The experiment in a line: THP-1 cytological TNFa ELISA assay (LPS-stimulated). The format is cell-based. The conditions noted are these: Homo sapiens, TNF-α in culture supernatant, 150 ng/mL LPS, 18 hours. On the procedure:
THP-1 human acute […] leukemia cells were purchased from ATCC (Cat #TIB-202) and cultured at 37° C. in 5% CO2 incubator. The composition of medium was RPMI1640 (Gibco, Cat #22400-105), and the supplementary compositions were 10% FBS (Gibco, Cat #10091148); 1% PenStrep (Gibco, Cat #15140); 0.05 mM 2-Mercaptoethanol (Sigma, Cat #M6250).
TNF-α Elisa kit was used to detect the content of TNF-α in cell culture supernatant samples. TNF-α was produced by stimulating THP-1 cells with 150 ng/mL LPS (Sigma, Cat #L6529).
THP-1 cells cultured normally at logarithmic growth stage were seeded in a 96-well plate (Corning #3599) at a certain concentration (1*10^5/100 μL) and then put into a cell incubator for incubation. After two hours, 16.7 μL of different concentrations of the compound to be tested (8*final concentration) were added and incubated in an incubator. After one hour, 16.7 μL of 1200 ng/mL LPS was added and incubated in an incubator. After 18 hours, the culture supernatant samples were collected by centrifugation, and the content of TNF-α could be detected by TNF-α Elisa kit. Finally, OD signals (OD450-OD570) were read on envision board reader.
The OD450-OD570 signal value was converted into a percentage inhibition rate. Inhibition rate %=(ZPE−sample)/(ZPE−HPE)*100.
“HPE” refers to the OD450-OD570 signal value of the control well without LPS stimulated cells, and “ZPE” refers to the OD450-OD570 signal value of the control well with LPS stimulated cells. The IC50 value of the compound was calculated by XLFit in the excel add-in. Y=Bottom+(Top−Bottom)/(1+(IC50/X)^HillSlope). Equation: […]
Consider `Cc1cc(-c2nc(C(=O)Nc3cn4cc(CCC(C)(C)O)nc4cc3-c3cccc(F)c3)co2)ccn1` [WX025], for which inhibition was half-maximal at 21 nM (IC50).

In turn, `Cc1cc(-c2nc(C(=O)Nc3cn4cc(CCC(C)(C)O)nc4cc3-c3ccccc3)co2)ccn1` [WX021] displayed a half-maximal inhibitory concentration (IC50) of 15 nM.

As to `Cc1cc(-c2nc(C(=O)Nc3cn4cc(CCC(=O)O)nc4cc3N3CCC(C)(C)CC3)co2)ccn1` [WX016], the IC50 was 170 nM.

The target in the next assay is T2, human IRAK4 (Homo sapiens, UniProt Q9NWZ3).
T2 construct: purchased Reaction Biology Corp
T2 sequence (Q9NWZ3 1-460): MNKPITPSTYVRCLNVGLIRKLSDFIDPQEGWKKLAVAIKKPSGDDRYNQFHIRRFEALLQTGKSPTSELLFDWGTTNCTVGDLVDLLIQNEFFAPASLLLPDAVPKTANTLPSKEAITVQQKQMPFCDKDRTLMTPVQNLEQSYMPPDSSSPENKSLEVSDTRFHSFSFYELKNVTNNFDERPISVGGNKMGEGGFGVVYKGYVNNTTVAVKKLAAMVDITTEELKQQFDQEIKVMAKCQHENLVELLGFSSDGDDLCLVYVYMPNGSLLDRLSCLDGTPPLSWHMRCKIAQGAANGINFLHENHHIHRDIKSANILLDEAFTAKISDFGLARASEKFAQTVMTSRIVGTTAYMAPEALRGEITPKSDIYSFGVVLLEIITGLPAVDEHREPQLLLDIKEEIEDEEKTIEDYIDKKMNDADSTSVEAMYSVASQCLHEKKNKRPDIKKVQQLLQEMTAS
The assay can be described thus: In vitro IRAK4 kinase activity, 33P isotope-labeled kinase activity assay (Reaction Biology Corp). It is filed as biochemical.
Conditions: not given
On the procedure: The IC50 values were determined using ^33P isotope-labeled kinase activity assay (Reaction Biology Corp) to evaluate the inhibitory ability of the tested compounds on human IRAK4.
as §4
Test procedure: At room temperature, the tested compound was dissolved in DMSO to prepare a 10 mM solution for later use. The substrate was dissolved in a newly prepared buffer solution, and the tested IRAK4 kinase was added thereto and mixed evenly. The DMSO solution dissolved with the tested compound was added to the above reaction mixture mixed evenly using acoustic technique (Echo 550). After incubation for 15 minutes, ^33P-ATP was added to initiate the reaction.
The compound `Cc1cc(-c2nc(C(=O)Nc3cn4cc(CCC(C)(C)O)nc4cc3-c3cccc(F)c3)co2)ccn1` [WX025] gave a half-maximal inhibitory concentration (IC50) of 0.7 nM. This lies in the sub-nanomolar range.

For the compound `Cc1cc(-c2nc(C(=O)Nc3cn4cc(CCC(C)(C)O)nc4cc3-c3ccccc3)co2)ccn1` [WX021], the IC50 came out at 0.5 nM.

`Cc1cc(-c2nc(C(=O)Nc3cn4cc(CCC(=O)O)nc4cc3N3CCC(C)(C)CC3)co2)ccn1` [WX016] registered a concentration for half-maximal inhibition (IC50) of 0.9 nM. Against the preceding compound, the IC50 is about 1.8-fold higher.

The subject of another assay is TMD8 human B-cell lymphoma cells. The assay can be described thus: TMD-8 cell proliferation inhibition (CellTiter-Glo). It is filed as cell-based. The following applies: TMD8, 72 h, treated for 3 days. On the procedure: TMD8 human B-cell lymphoma cells were cultured in a 37° C., 5% CO2 incubator. The composition of medium was RPMI1640 (GIBCO, Cat #22400-089); the supplementary compositions were 10% FBS (Hyclone, Cat #SH30084.03); 1% PenStrep (Thermo, Cat #SV30010).
as §1, §2, §3
Turning to `Cc1cc(-c2nc(C(=O)Nc3cn4cc(CCC(C)(C)O)nc4cc3-c3ccccc3)co2)ccn1` [WX021], the IC50 was found to be 215 nM.

Consider `Cc1cc(-c2nc(C(=O)Nc3cn4cc(CCC(=O)O)nc4cc3N3CCC(C)(C)CC3)co2)ccn1` [WX016], for which the concentration for half-maximal inhibition (IC50) was found to be 221 nM. This IC50 and that of the compound before are within 1.5-fold of each other.

The values are drawn from patent publication US12459940B2, “Oxazole compound as multi-targeted inhibitor of IRAK4 and BTK” (SHANGHAI FOSUN PHARMACEUTICAL INDUSTRIAL DEVELOPMENT CO., …, priority 2019, dated 2025).
